Test results taken from US20170239289A1, “TREATMENT OF INFLAMMATION, RESPIRATORY TRACT INFECTIONS AND CYSTIC FIBROSIS” (Advanced Inhalation Therapies (AIT) Ltd., priority 2014, published 2017).
“Also recorded” adds a separate entry of the source.

Key:
[1] = test system: S. aureus (MSSA); test: Example 4: bacterial and fungal sputum load; assay type: in vivo, Staphylococcus aureus
Protocol: (§1) In addition to their standard care, subjects were administered three 30-minute inhalations per day of 160 ppm NO (with O2/air) for 10 working days (i.e., 5 days on treatment, 2 days off treatment, 5 days on treatment, for a total of 10 treatment days and 30 inhalations).
(§2) Secondary Endpoints—Efficacy: • Comparison of FEV1 improvement before and after NO treatment Observational Endpoints: • To determine the reduction in bacterial and fungal sputum load during each week of NO treatment compared to bacterial sputum load before NO treatment • Assess the improvement of lung function indices during and after NO intermittent inhalation treatment as determined by spirometry (i.e., FVC, FEV1, FEV1/FVC, forced expiratory flow 25% to 75% (FEF 25-75)) • Evaluate C-reactive protein (CRP) levels over time • Number of subjects with study drug related bleeding at any time point
(§3) Results of the bacterial and fungal sputum load analysis were highly variable, and due to limitations of the sampling and testing technique, must be interpreted with caution. Microbiology results were recorded from Day 1 to end of follow-up, for all samples taken during the study. In order for NO therapy to be efficient, a minimal exposure of the microbial population to NO for the whole duration of the study is required. […] Thus, data was analyzed only for cultures with positive results on Day 1. Furthermore, samples from 2 subjects (SO-01 and SO-02) were not analyzed by the central laboratory. A summary of the bacterial and fungal sputum results at Day 1 and Day 9 is presented according to subject in Table 18.

[2] = test system: human subjects diagnosed with cystic fibrosis; test: Example 4: CF study, 160 ppm NO 30 min 3x daily for 10 treatment days; safety; assay type: in vivo
Protocol: as §1
A minimum time interval of 3.5 hours from the end of one treatment to the beginning of the next treatment was required.
As a safety measure, during NO administration, human subjects' MetHb and 02 saturation levels in the blood were monitored utilizing a commercial “off the shelf” co-oxymeter (Masimo Corporation Model RAD-57/RAD 87).
In the event of MetHb greater than 5% or O2 saturation less than or equal to 88%, treatment was temporarily discontinued, and measure repeated 30 minutes later. If value(s) had returned to above the safety threshold, the next inhalation was started according to protocol. In any case of a second episode of MeHb greater than 5%, study treatment was to be permanently discontinued.
Primary Endpoints—Safety and Tolerability: • Safety • Determine the MetHb levels during treatment with inhaled NO • Determine other AEs associated with inhaled NO • Tolerability • Proportion of subjects (%) who prematurely discontinued the study or study treatment for any reason • Proportion of subjects (%) who prematurely discontinued the study treatment due to AEs or SAEs • Proportion of subjects (%) who prematurely discontinued the study treatment due to AEs or SAEs associated with inhaled NO
All measured variables and derived parameters were listed individually and tabulated by descriptive statistics. For categorical variables, summary tables were provided giving sample size, absolute and relative frequency. For continuous variables, summary tables were provided giving sample size, arithmetic mean, SD, median, minimum and maximum and 95% CI for means of variables. For the ITT cohort, the LOCF approach was applied, when deemed appropriate, to account for missing data at or prior to study termination. Methemoglobin was summarized in appropriate descriptive tables. The percent of subjects with MetHb level greater than 5% was calculated per time point. Changes from baseline in MetHb levels were analyzed using Signed rank test for two means. Laboratory results were summarized in appropriate tables by time. Changes from baseline were calculated and presented as well.

[3] = test system: Aspergillus fumigatus; test: Example 4: bacterial and fungal sputum load; assay type: in vivo
Protocol: as §1, §2, §3

[4] = test system: Achromobacter spp.; test: Example 4: bacterial and fungal sputum load; assay type: in vivo
Protocol: as §1, §2, §3

[5] = test system: mucoid P. aeruginosa; test: Example 4: bacterial and fungal sputum load; assay type: in vivo
Protocol: as §1, §2, §3

[6] = test system: Total P. aeruginosa; test: Example 4: bacterial and fungal sputum load; assay type: in vivo
Protocol: as §1, §2, §3

[7] = test system: Non-Mucoid P. aeruginosa; test: Example 4: bacterial and fungal sputum load; assay type: in vivo
Protocol: as §1, §2, §3

[8] = test system: mucoid P. aeruginosa; test: Example 1: microbial density in sputum (CFU) during NO inhalation; assay type: in vivo; details: Patient 4 (CFSCH04)
Protocol: NO was administered via inhalation to nine clinically stable human subjects diagnosed with, or suffering from CF from two medical centers. Patients received three daily 30-minute treatments of 160 ppm NO with at least 3.5 hours between treatments, for 5 days per week over a two-weeks time period.
Preliminary efficacy measures included determination of microbial density in sputum and measurements of forced exhaled volume at 1 second (FEV1). Inflammation associated with C-reactive protein (CRP) levels was assessed as a secondary outcome measure. Other inflammation biomarkers, such as interleukins, were also monitored (data not shown).
Bacterial load was measured for exemplary, non-limiting selection of species that included, P. alcaligenes, methicillin-sensitive Staphylococcus aureus (MSSA), Achromobacter spp., A. fumigates, non-mucoid P. aeruginosa and mucoid P. aeruginosa.

`[N]=O` [NO, nitric oxide] was tested, and the “S. aureus (MSSA), % change from Day 1 to Day 9” value ([1]; Subject SC-03) was −100.0%, the “S. aureus (MSSA) sputum load” value ([1]; Subject SC-03, Day 1) was 29.5 CFU/mL × 10^−4 and the “S. aureus (MSSA) sputum load” value ([1]; Subject SC-03, Day 9) was 0 CFU/mL × 10^−4. For the same molecule, the “S. aureus (MSSA), % change from Day 1 to Day 9” value ([1]; Subject SO03) was “+27.6%”, the “S. aureus (MSSA) sputum load” value ([1]; Subject SO03, Day 1) was 67.0 CFU/mL × 10^−4 and the “S. aureus (MSSA) sputum load” value ([1]; Subject SO03, Day 9) was 85.5 CFU/mL × 10^−4. The “AEs of MetHb elevation greater than 5% or NO2 elevation greater than 5 ppm” value ([2]; N=9) was “no AEs”, the “AEs possibly or probably related to treatment, % of subjects” value ([2]; N=9) was 22.2% and the “Adverse events reported by, % of subjects” value ([2]; N=9) was 55.5%. For the same molecule, the “Severe or serious AEs” value ([2]; N=9) was “no severe or serious AEs”, the “maximum MetHb level” value ([2]; N=9) was 4.6% and the “total AEs reported” value ([2]; N=9, 20 events in a single subject (SC-01)) was 31. For the same molecule, the “Subjects with MetHb greater than 5%” value ([2]; entire study treatment period, N=9) was “no subjects”, the cases of haemoptysis ([2]; in 2 subjects, all events mild) was 7 cases and the “Cumulative effect on MetHb levels” value ([2]; over the study treatment period) was “no “cumulative” effect; also recorded: no cumulative effect”. For the same molecule, the “Aspergillus fumigatus, % change from Day 1 to Day 9” value ([3]; Subject SC-03) was −100.0%, the “Aspergillus fumigatus sputum load” value ([3]; Subject SC-03, Day 1) was 2.00 CFU/mL × 10^−4 and the “Aspergillus fumigatus sputum load” value ([3]; Subject SC-03, Day 9) was 0 CFU/mL × 10^−4. For the same molecule, the “Achromobacter spp., % change from Day 1 to Day 9” value ([4]; Subject SC-03) was −94.3%, the “Achromobacter spp. sputum load” value ([4]; Subject SC-03, Day 1) was 44.1 CFU/mL × 10^−4 and the “Achromobacter spp. sputum load” value ([4]; Subject SC-03, Day 9) was 2.50 CFU/mL × 10^−4. The “Mucoid P. aeruginosa, % change from Day 1 to Day 9” value ([5]; Subject SC-01) was −3.7%, the “Mucoid P. aeruginosa sputum load” value ([5]; Subject SC-01, Day 1) was 2,700 CFU/mL × 10^−4 and the “Mucoid P. aeruginosa sputum load” value ([5]; Subject SC-01, Day 9) was 2,600 CFU/mL × 10^−4. For the same molecule, the “Mucoid P. aeruginosa, % change from Day 1 to Day 9” value ([5]; Subject SC-05) was −99.9%, the “Mucoid P. aeruginosa sputum load” value ([5]; Subject SC-05, Day 1) was 29,000 CFU/mL × 10^−4 and the “Mucoid P. aeruginosa sputum load” value ([5]; Subject SC-05, Day 9) was 30.0 CFU/mL × 10^−4. The “Total P. aeruginosa (central lab only), % change from Day 1 to Day 9” value ([6]; Subject SC-01) was −3.7%, the “Total P. aeruginosa (including Soroka lab), % change from Day 1 to Day 9” value ([6]; Subject SC-01) was −3.7% and the “Total P. aeruginosa (central lab only) sputum load” value ([6]; Subject SC-01, Day 1) was 2,700 CFU/mL × 10^−4. For the same molecule, the “Total P. aeruginosa (including Soroka lab) sputum load” value ([6]; Subject SC-01, Day 1) was 2,700 CFU/mL × 10^−4, the “Total P. aeruginosa (central lab only) sputum load” value ([6]; Subject SC-01, Day 9) was 2,600 CFU/mL × 10^−4 and the “Total P. aeruginosa (including Soroka lab) sputum load” value ([6]; Subject SC-01, Day 9) was 2,600 CFU/mL × 10^−4. The “Total P. aeruginosa (central lab only), % change from Day 1 to Day 9” value ([6]; Subject SC-02) was “+33.1%”, the “Total P. aeruginosa (including Soroka lab), % change from Day 1 to Day 9” value ([6]; Subject SC-02) was “+33.1%” and the “Total P. aeruginosa (central lab only) sputum load” value ([6]; Subject SC-02, Day 1) was 496 CFU/mL × 10^−4. The “Total P. aeruginosa (including Soroka lab) sputum load” value ([6]; Subject SC-02, Day 1) was 496 CFU/mL × 10^−4, the “Total P. aeruginosa (central lab only) sputum load” value ([6]; Subject SC-02, Day 9) was 660 CFU/mL × 10^−4 and the “Total P. aeruginosa (including Soroka lab) sputum load” value ([6]; Subject SC-02, Day 9) was 660 CFU/mL × 10^−4. The “Total P. aeruginosa (central lab only), % change from Day 1 to Day 9” value ([6]; Subject SC-04) was −57.9%, the “Total P. aeruginosa (including Soroka lab), % change from Day 1 to Day 9” value ([6]; Subject SC-04) was −57.9% and the “Total P. aeruginosa (central lab only) sputum load” value ([6]; Subject SC-04, Day 1) was 80,000 CFU/mL × 10^−4. For the same molecule, the “Total P. aeruginosa (including Soroka lab) sputum load” value ([6]; Subject SC-04, Day 1) was 80,000 CFU/mL × 10^−4, the “Total P. aeruginosa (central lab only) sputum load” value ([6]; Subject SC-04, Day 9) was 33,700 CFU/mL × 10^−4 and the “Total P. aeruginosa (including Soroka lab) sputum load” value ([6]; Subject SC-04, Day 9) was 33,700 CFU/mL × 10^−4. The “Total P. aeruginosa (central lab only), % change from Day 1 to Day 9” value ([6]; Subject SC-05) was −90.2%, the “Total P. aeruginosa (including Soroka lab), % change from Day 1 to Day 9” value ([6]; Subject SC-05) was −90.2% and the “Total P. aeruginosa (central lab only) sputum load” value ([6]; Subject SC-05, Day 1) was 32,100 CFU/mL × 10^−4. For the same molecule, the “Total P. aeruginosa (including Soroka lab) sputum load” value ([6]; Subject SC-05, Day 1) was 32,100 CFU/mL × 10^−4, the “Total P. aeruginosa (central lab only) sputum load” value ([6]; Subject SC-05, Day 9) was 3,140 CFU/mL × 10^−4 and the “Total P. aeruginosa (including Soroka lab) sputum load” value ([6]; Subject SC-05, Day 9) was 3,140 CFU/mL × 10^−4. The “Total P. aeruginosa (including Soroka lab), % change from Day 1 to Day 9” value ([6]; Subject SO01) was “+611%”, the “Total P. aeruginosa (including Soroka lab) sputum load” value ([6]; Subject SO01, Day 1) was 450 CFU/mL × 10^−4 and the “Total P. aeruginosa (including Soroka lab) sputum load” value ([6]; Subject SO01, Day 9) was 3,200 CFU/mL × 10^−4. For the same molecule, the “Total P. aeruginosa (including Soroka lab), % change from Day 1 to Day 9” value ([6]; Subject SO02) was “+250%”, the “Total P. aeruginosa (including Soroka lab) sputum load” value ([6]; Subject SO02, Day 1) was 100 CFU/mL × 10^−4 and the “Total P. aeruginosa (including Soroka lab) sputum load” value ([6]; Subject SO02, Day 9) was 350 CFU/mL × 10^−4. For the same molecule, the “Non-Mucoid P. aeruginosa, % change from Day 1 to Day 9” value (from here on “Non-Mucoid P. aeruginosa, % change”) ([7]; Subject SC-02) was “+33.1%”, the “Non-Mucoid P. aeruginosa sputum load” value ([7]; Subject SC-02, Day 1) was 496 CFU/mL × 10^−4 and the “Non-Mucoid P. aeruginosa sputum load” value ([7]; Subject SC-02, Day 9) was 660 CFU/mL × 10^−4. For the same molecule, the “Non-Mucoid P. aeruginosa, % change” value ([7]; Subject SC-04) was −57.9%, the “Non-Mucoid P. aeruginosa sputum load” value ([7]; Subject SC-04, Day 1) was 80,000 CFU/mL × 10^−4 and the “Non-Mucoid P. aeruginosa sputum load” value ([7]; Subject SC-04, Day 9) was 33,700 CFU/mL × 10^−4. The “Non-Mucoid P. aeruginosa, % change” value ([7]; Subject SC-05) was −89.3%, the “Non-Mucoid P. aeruginosa sputum load” value ([7]; Subject SC-05, Day 1) was 29,200 CFU/mL × 10^−4 and the “Non-Mucoid P. aeruginosa sputum load” value ([7]; Subject SC-05, Day 9) was 3,110 CFU/mL × 10^−4. The “decrease in mucoid P. aeruginosa counts” value [8] was 2 log.
